According to the supplement of paper PMC5908809:

Experiments:
[1] = system: normal NK cells expanded with K562-aAPC; test: percent inhibition of viability; higher = more inhibition; details: 72 h, IL-2 2.5 ng/mL
Protocol: (§1)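 Drug sensitivity and resistance testing on K562-aAPC-expanded normal NK cells: 5 concentrations (10-fold steps over a 10,000-fold range), 72 h at 37 °C, viability by CellTiter-Glo normalised to DMSO and benzethonium chloride controls; DSS from the fitted curve.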

DERL-7 (IL-2 2.5 ng/mL) [2] = test: as above; details: 72 h
IMC-1 (IL-2 20 ng/mL) [3] = test: as above; details: 72 h
KAI3 (IL-2 2.5 ng/mL) [4] = test: as above; details: 72 h
KHYG-1 (IL-2 2.5 ng/mL) [5] = test: as above; details: 72 h
NK-92 (IL-2 2.5 ng/mL) [6] = test: as above; details: 72 h
NK-YS (IL-2 2.5 ng/mL) [7] = test: as above; details: 72 h
NKL (IL-2 2.5 ng/mL) [8] = test: as above; details: 72 h
SNK-6 (IL-2 2.5 ng/mL) [9] = test: as above; details: 72 h
YT (IL-2 2.5 ng/mL) [10] = test: as above; details: 72 h
[11] = system: normal primary NK cells, pool 1 (3 donors) (IL-2 2.5 ng/mL); test: as above; details: 72 h
[12] = system: normal primary NK cells, pool 1 (3 donors), resting (IL-2 0 ng/mL); test: as above; details: 72 h
[13] = system: normal primary NK cells, pool 2 (3 donors) (IL-2 2.5 ng/mL); test: as above; details: 72 h
[14] = system: normal primary NK cells, pool 3 (3 donors) (IL-2 2.5 ng/mL); test: as above; details: 72 h
[15] = system: normal NK cells expanded with K562-aAPC; test: drug sensitivity score (DSS) (DSS units); higher = more sensitive; extreme values may be limits of the assay; details: 72 h; IL-2 2.5 ng/mL
Protocol: as §1

DERL-7 (IL-2 2.5 ng/mL) [16] = test: as above; details: 72 h
IMC-1 (IL-2 20 ng/mL) [17] = test: as above; details: 72 h
KAI3 (IL-2 2.5 ng/mL) [18] = test: as above; details: 72 h
KHYG-1 (IL-2 2.5 ng/mL) [19] = test: as above; details: 72 h
NK-92 (IL-2 2.5 ng/mL) [20] = test: as above; details: 72 h
NK-YS (IL-2 2.5 ng/mL) [21] = test: as above; details: 72 h
NKL (IL-2 2.5 ng/mL) [22] = test: as above; details: 72 h
SNK-6 (IL-2 2.5 ng/mL) [23] = test: as above; details: 72 h
YT (IL-2 2.5 ng/mL) [24] = test: as above; details: 72 h
[25] = system: normal primary NK cells, pool 1 (3 donors) (IL-2 2.5 ng/mL); test: as above; details: 72 h
[26] = system: normal primary NK cells, pool 1 (3 donors), resting (IL-2 0 ng/mL); test: as above; details: 72 h
[27] = system: normal primary NK cells, pool 2 (3 donors) (IL-2 2.5 ng/mL); test: as above; details: 72 h
[28] = system: normal primary NK cells, pool 3 (3 donors) (IL-2 2.5 ng/mL); test: as above; details: 72 h

Nc1ncnc2c1nc(N)n2[C@@H]1O[C@H](CO)[C@@H](O)[C@H]1O [8-amino-adenosine] (max concentration tested 50000 nM)
percent inhibition of viability [%]
Details | 5 nM | 50 nM | 500 nM | 5000 nM | 50000 nM
DERL-7 (IL-2 2.5 ng/mL) [2] | -0.37 | -2.93 | 51.5 | 101 | 101
IMC-1 (IL-2 20 ng/mL) [3] | -2.9 | -0.37 | 12.2 | 101 | 101
KAI3 (IL-2 2.5 ng/mL) [4] | -12.9 | -1.89 | 75.4 | 104 | 106
KHYG-1 (IL-2 2.5 ng/mL) [5] | -1.34 | -2.24 | 21.2 | 105 | 109
NK-92 (IL-2 2.5 ng/mL) [6] | -19.1 | -2.94 | 59.2 | 106 | 109
NK-YS (IL-2 2.5 ng/mL) [7] | -5.77 | -1.64 | 26 | 102 | 108
NKL (IL-2 2.5 ng/mL) [8] | -18.8 | 6.72 | 63 | 107 | 109
SNK-6 (IL-2 2.5 ng/mL) [9] | 24.4 | 39.9 | 75.8 | 99 | 101
YT (IL-2 2.5 ng/mL) [10] | -0.2 | 1.01 | 20.2 | 102 | 110
[1] | -1.82 | 3.86 | 28.5 | 101 | 101
[11] | 2.12 | -9.21 | 1.92 | 26.5 | 81.2
[12] | -6.09 | -20.9 | -6.28 | 5.09 | 75.2
[13] | -14.7 | -1.95 | 0.14 | 36.1 | 88.7
[14] | -13.3 | -8.61 | 10.2 | 31 | 84.2

Details | drug sensitivity score
DERL-7 (IL-2 2.5 ng/mL) [16] | 24.3
IMC-1 (IL-2 20 ng/mL) [17] | 20.1
KAI3 (IL-2 2.5 ng/mL) [18] | 26.6
KHYG-1 (IL-2 2.5 ng/mL) [19] | 21.4
NK-92 (IL-2 2.5 ng/mL) [20] | 25
NK-YS (IL-2 2.5 ng/mL) [21] | 22
NKL (IL-2 2.5 ng/mL) [22] | 25.6
SNK-6 (IL-2 2.5 ng/mL) [23] | 32.5
YT (IL-2 2.5 ng/mL) [24] | 21.3
[15] | 22.2
[25] | 8.3
[26] | 4.92
[27] | 9.73
[28] | 8.22

CC(=O)NCC(=O)N1[C@@H]2CC[C@H]1c1ccc(Nc3ncc(C(F)(F)F)c(NC4CCC4)n3)cc12 (max concentration tested 10000 nM)
percent inhibition of viability [%]
Details | 1 nM | 10 nM | 100 nM | 1000 nM | 10000 nM
DERL-7 (IL-2 2.5 ng/mL) [2] | -3.49 | 2.07 | 76.5 | 79.7 | 101
IMC-1 (IL-2 20 ng/mL) [3] | 1.14 | -0.36 | 54.2 | 92.5 | 102
KAI3 (IL-2 2.5 ng/mL) [4] | 2 | 18.3 | 49.2 | 85 | 103
KHYG-1 (IL-2 2.5 ng/mL) [5] | 5.24 | 7.98 | 82.5 | 103 | 105
NK-92 (IL-2 2.5 ng/mL) [6] | -9.89 | 2.73 | 54 | 76.7 | 104
NK-YS (IL-2 2.5 ng/mL) [7] | -3.49 | 7.45 | 62.7 | 65.7 | 102
NKL (IL-2 2.5 ng/mL) [8] | -9.97 | 18.8 | 54.1 | 75 | 104
SNK-6 (IL-2 2.5 ng/mL) [9] | 9.63 | 33.2 | 82.6 | 85.3 | 98.7
YT (IL-2 2.5 ng/mL) [10] | 3.79 | 9.48 | 23.2 | 62.2 | 103
[1] | -3.83 | 6.05 | 58.2 | 91 | 101
[11] | 4.9 | -3.44 | 17 | 44.7 | 98.1
[12] | -11.5 | -16.5 | -21.3 | -42.6 | 91.9
[13] | -12.8 | 1.36 | 16.8 | 50.3 | 96.5
[14] | -18.1 | -9.96 | 2.88 | 33.6 | 97.8

Details | drug sensitivity score
DERL-7 (IL-2 2.5 ng/mL) [16] | 27.3
IMC-1 (IL-2 20 ng/mL) [17] | 24.2
KAI3 (IL-2 2.5 ng/mL) [18] | 22.9
KHYG-1 (IL-2 2.5 ng/mL) [19] | 28.7
NK-92 (IL-2 2.5 ng/mL) [20] | 22.1
NK-YS (IL-2 2.5 ng/mL) [21] | 21.9
NKL (IL-2 2.5 ng/mL) [22] | 22.5
SNK-6 (IL-2 2.5 ng/mL) [23] | 31
YT (IL-2 2.5 ng/mL) [24] | 15.1
[15] | 24.6
[25] | 11
[26] | 3.63
[27] | 12
[28] | 10

Cn1cc(C2=Nc3cc(NC(=O)C(N)C4CCCCC4)cc4c3C2=CNNC4=O)cn1 (configuration not stated) (max concentration tested 10000 nM)
percent inhibition of viability [%]
Details | 1 nM | 10 nM | 100 nM | 1000 nM | 10000 nM
DERL-7 (IL-2 2.5 ng/mL) [2] | -5.54 | -1.5 | 4.6 | 48.3 | 97.6
IMC-1 (IL-2 20 ng/mL) [3] | -2.84 | -1.7 | 7.25 | 99.8 | 101
KAI3 (IL-2 2.5 ng/mL) [4] | -1.93 | -2.44 | 21.2 | 93 | 103
KHYG-1 (IL-2 2.5 ng/mL) [5] | 18.4 | 5.75 | 32.3 | 104 | 107
NK-92 (IL-2 2.5 ng/mL) [6] | 3.17 | -3.7 | 17.4 | 65.2 | 107
NK-YS (IL-2 2.5 ng/mL) [7] | -0.41 | 0.42 | 9.21 | 75.4 | 97.2
NKL (IL-2 2.5 ng/mL) [8] | -1.81 | 2.84 | -0.69 | 61.7 | 82.7
SNK-6 (IL-2 2.5 ng/mL) [9] | 5.64 | 12.4 | 25.4 | 80.5 | 97.2
YT (IL-2 2.5 ng/mL) [10] | 1.41 | 1.74 | 10.1 | 72.6 | 104
[1] | -1.76 | 0.06 | 11.6 | 53.4 | 73.3
[11] | -1.65 | -6.59 | -10.1 | -4.12 | 59.9
[12] | 1.23 | -6.26 | -15.6 | -23.2 | 9.49
[13] | -14.2 | -7.44 | -6.63 | 8.32 | 85.8
[14] | -13 | -2.42 | 9.48 | 11.7 | 76.2

Details | drug sensitivity score
DERL-7 (IL-2 2.5 ng/mL) [16] | 11.1
IMC-1 (IL-2 20 ng/mL) [17] | 19.1
KAI3 (IL-2 2.5 ng/mL) [18] | 19.7
KHYG-1 (IL-2 2.5 ng/mL) [19] | 22.6
NK-92 (IL-2 2.5 ng/mL) [20] | 14.7
NK-YS (IL-2 2.5 ng/mL) [21] | 15.2
NKL (IL-2 2.5 ng/mL) [22] | 11.7
SNK-6 (IL-2 2.5 ng/mL) [23] | 18
YT (IL-2 2.5 ng/mL) [24] | 15
[15] | 11.4
[25] | 2.92
[26] | 0
[27] | 6.1
[28] | 6.18
